This is an account of results in patent US9617264B2, “2,7-diazaspiro[3.5]nonane compounds” (REMYND NV, priority 2014, dated 2017).

Each structure is given as a SMILES string.

The assay deals with M17_3SYN cells. In words: Paraquat-induced cytotoxicity (LDH) in α-synuclein over-expressing M17_3SYN neuroblastoma cells. As to conditions: Homo sapiens, Neuroblastoma cell, 48 h, 6 mM Paraquat, 2 days, LDH toxicity inhibition, read-out: SYN EC50. The assay is classed as cell-based. An excerpt:
A α-synuclein expression plasmid was constructed by subcloning the NcoI/XhoI fragment from 212T-SYN(WT) (Griffioen et al., Biochem Biophys Acta (2006) 1762(3):312-318) containing the cDNA of human wild type α-synuclein correspondingly into a standard mammalian expression vector pcDNA3.1 resulting in plasmid pcDNA3.1-SYNwt. Plasmids pcDNA3.1 and pcDNA3.1-SYNwt were transfected into human neuroblastoma cells (BE-M17; ATCC No. CRL-2267™) using lipofectamine reagent and subsequently, independent clonal cell lines with the plasmids stably integrated into the genome were selected by antibiotic resistance selection (Geneticin (G418)), resulting in cell lines M17.pcDNA3 and M17_3SYN. Overexpression of α-synuclein in the M17_3SYN cell line was confirmed by Western blot analysis.
Due to the high levels of α-synuclein, M17_3SYN cells were sensitive to paraquat, a well-known risk factor Parkinson's disease and of synuclein-dependent neuronal degeneration. Cytotoxicity of cells was measured by quantification of lactate dehydrogenase (LDH) levels. In dead cells, LDH leaked out of the cells into the medium due to a loss of plasma-membrane integrity.
Three days preceding the experiment, primary pre-cultures of M17.pcDNA3 (as possible control) and M17_3SYN cells were prepared, starting from a stock culture, at a density of 20.000-40.000 cells/cm2 in culture medium (Opti-MEM® Reduced Serum Medium with Phenol Red (Invitrogen, Cat. 31985-047) supplemented with 10% FCS, 1 mM sodium pyruvate, 1×NEAA, 500 μg/ml G418 and 0.5× antibiotic/antimycotic (ABAM)). 3 days later these primary pre-cultures were used as a starting point to make secondary pre-cultures at a density of 50.000-100.000 cells/cm^2. At the day of the experiment these secondary precultures were diluted to ˜0.5·10^6 cells/ml in detection medium (Opti-MEM® Reduced-Serum Medium without Phenol Red (Invitrogen, Cat. 11085-021) supplemented with 10% FCS, 1 mM sodium pyruvate, 1×NEAA, 500 μg/ml G418 and 0.5×ABAM) and 60 μL of this suspension was dispensed per well into a 96-well microtiter plate. After 3 hours of incubation at 37° C./5% CO2 an equal volume of detection medium containing a final concentration of 6 mM Paraquat was added and subsequently incubated for 2 days at 37° C./5% CO2. Then LDH activity was determined using the Promega Cytotox 96 Non-Radioactive cytotoxicity assay (Promega, Cat. G1780), according to the manufacturer's instructions. Cytotoxicity was defined as the ratio of LDH relative to the total LDH in the cells and supernatant.
The assay described above using the M17_3SYN cell line allowed screening compounds for their ability to decrease cytotoxicity in PQ-challenged cells. Compounds of the invention were tested for their ability to decrease toxicity at different concentrations, ranging from low non-effective concentrations to high effective concentrations. Afterwards, a dose-dependent inhibition curve was used to calculate the EC50. A compound was considered to be active in this test when it inhibited toxicity by more than 20% relative to untreated M17_3SYN cells at a concentration of […] or lower.
As a reminder, the EC50 is the midpoint of the concentration-response curve. For `COc1ccc(F)cc1S(=O)(=O)N1CCC2(CC1)CN(c1nc(Cc3ccc(F)cc3)ns1)C2` [Cmpd086, 5-(7-((5-Fluoro-2-methoxyphenyl)sulfonyl)-2,7-diazaspiro[3.5]nonan-2-yl)-3-(4-fluorobenzyl)-1,2,4-thiadiazole], the EC50 stood at 300 nM.

Turning to `COc1cccc(S(=O)(=O)N2CCC3(CC2)CN(c2nc(Cc4ccc(F)cc4)ns2)C3)c1` [Cmpd076, 3-(4-Fluorobenzyl)-5-(7-((3-methoxyphenyl)sulfonyl)-2,7-diazaspiro[3.5]nonan-2-yl)-1,2,4-thiadiazole], the concentration giving a half-maximal response (EC50) was 394 nM.

In the case of `COC(=O)c1cccc(S(=O)(=O)N2CCC3(CC2)CN(c2nc(Cc4ccc(F)cc4)ns2)C3)c1` [Cmpd084, Methyl 3-((2-(3-(4-fluorobenzyl)-1,2,4-thiadiazol-5-yl)-2,7-diazaspiro[3.5]nonan-7-yl)sulfonyl)benzoate], the EC50 was found to be 383 nM.

On to `O=S(=O)(c1c(F)cccc1F)N1CCC2(CC1)CN(c1nc(Cc3ccc(F)cc3)ns1)C2` [Cmpd074, 5-(7-((2,6-Difluorophenyl)sulfonyl)-2,7-diazaspiro[3.5]nonan-2-yl)-3-(4-fluorobenzyl)-1,2,4-thiadiazole], for which the EC50 came out at 260 nM.

Turning to `O=S(=O)(c1ccc(OC(F)F)cc1)N1CCC2(CC1)CN(c1nc3ccc(Cl)cc3s1)C2` [Cmpd054, 6-Chloro-2-(7-((4-(difluoromethoxy)phenyl)sulfonyl)-2,7-diazaspiro[3.5]nonan-2-yl)benzo[d]thiazole], the EC50 came out at 406 nM.

Regarding `CSc1ccc(S(=O)(=O)N2CCC3(CC2)CN(c2nc(Cc4ccc(F)cc4)ns2)C3)cc1` [Cmpd041, 3-(4-Fluorobenzyl)-5-(7-((4-(methylthio)phenyl)sulfonyl)-2,7-diazaspiro[3.5]nonan-2-yl)-1,2,4-thiadiazole], the EC50 is 177 nM.

Consider `O=S(=O)(c1cc(F)ccc1F)N1CCC2(CC1)CN(c1nc(Cc3ccc(F)cc3)ns1)C2` [Cmpd073, 5-(7-((2,5-Difluorophenyl)sulfonyl)-2,7-diazaspiro[3.5]nonan-2-yl)-3-(4-fluorobenzyl)-1,2,4-thiadiazole], for which the EC50 was 217 nM.

Consider `O=S(=O)(c1cc(F)cc(F)c1)N1CCC2(CC1)CN(c1nc(Cc3ccc(F)cc3)ns1)C2` [Cmpd083, 5-(7-((3,5-Difluorophenyl)sulfonyl)-2,7-diazaspiro[3.5]nonan-2-yl)-3-(4-fluorobenzyl)-1,2,4-thiadiazole], for which the EC50 is 375 nM.

In the case of `COc1ccc(OC)c(S(=O)(=O)N2CCC3(CC2)CN(c2nc(Cc4ccc(F)cc4)ns2)C3)c1` [Cmpd072, 5-(7-((2,5-Dimethoxyphenyl)sulfonyl)-2,7-diazaspiro[3.5]nonan-2-yl)-3-(4-fluorobenzyl)-1,2,4-thiadiazole], the half-maximal effective concentration (EC50) came out at 212 nM.

As for `Cc1ccc(F)cc1S(=O)(=O)N1CCC2(CC1)CN(c1nc(Cc3ccc(F)cc3)ns1)C2` [Cmpd077, 5-(7-((5-Fluoro-2-methylphenyl)sulfonyl)-2,7-diazaspiro[3.5]nonan-2-yl)-3-(4-fluorobenzyl)-1,2,4-thiadiazole], the EC50 stood at 235 nM.

`COc1ccc(S(=O)(=O)N2CCC3(CC2)CN(c2nc(Cc4ccc(Cl)cc4)ns2)C3)cc1` [Cmpd032, 3-(4-Chlorobenzyl)-5-(7-((4-methoxyphenyl)sulfonyl)-2,7-diazaspiro[3.5]nonan-2-yl)-1,2,4-thiadiazole]: the EC50 came to 170 nM.

Consider `COc1ccc(S(=O)(=O)N2CCC3(CC2)CN(C(=O)C(C)(C)c2ccccc2)C3)cc1` [Cmpd013, 1-(7-((4-Methoxyphenyl)sulfonyl)-2,7-diazaspiro[3.5]nonan-2-yl)-2-methyl-2-phenylpropan-1-one], for which the EC50 is 44.4 nM.

On to `O=S(=O)(N1CCOCC1)N1CCC2(CC1)CN(c1nc(Cc3ccc(F)cc3)ns1)C2` [Cmpd098, 4-((2-(3-(4-Fluorobenzyl)-1,2,4-thiadiazol-5-yl)-2,7-diazaspiro[3.5]nonan-7-yl)sulfonyl)morpholine], for which the EC50 amounted to 1190 nM.
